The nature of one data set: Cytotoxicity, MTT assay. The conditions noted are these: human, TZM-bl cells. For orientation: Tetrazolium assays rely on reduction of a dye to a coloured formazan, in cell work by metabolically active cells.
Data set [1] in a line: Metabolic stability in human liver microsomes. The format is in vitro ADME. The following applies: pH 7.4, read-out: Metabolic Stability HLM t1/2. The method, then: Assays employed human liver microsomes (HLMs, 20 mg/mL) from Xenotech. A 10 mM NADPH stock was prepared in deionized H2O, and test compounds were dissolved in 100% MeOH to a final concentration of 10 mM. The stock solutions were diluted to 500 μM in 100 mM potassium phosphate buffer (pH 7.4), keeping the final MeOH concentration below 0.2%. Reaction mixtures were prepared by combining 928 μL phosphate buffer, 55 μL liver microsomes, and the test compound solution to a final concentration of 3 μM. Verapamil was used as a positive control. The reactions were initiated with the addition of 110 μL of 10 mM NADPH. Aliquots were taken in duplicate at 0, 5, 10, 15, and 30 min, quenched with 100 μL of cold MeOH containing 2 μM internal standard (d 5-7-ethoxy coumarin), and centrifuged at 12,000 RCF for 5 min. The supernatants were then transferred to LC-MS vials for analysis. The average of each duplicate was normalized to the 0 min time point, representing 100% remaining (0% metabolism).
A general note: Microsomes from liver hold many membrane-bound enzymes, among them those of drug oxidation.

For data set [2] the following is noted: cited from earlier work.
The conditions of data set [3]: cited from earlier work. The source holds these as a separate data set.
The next data set has as its system Caco-2 cell-derived CMs. The format is in vitro ADME, human. The following applies: 10 μM test drug, Caco-2 cells. On the procedure: [formula] 1 Chylomicron (CM) Isolation and Drug Quantification Methods ^a a (1) Caco-2 cells were grown to confluence. (2) Lipid mix was added to media (final drug concentration of 10 μM), and cells were incubated for 4 h. (3) Cells were washed 3× with PBS. (4) Cells were incubated in fresh media overnight. (5) CM-containing media was collected. (6) Media was combined with a 1.20 g/mL NaCl solution in an ultracentrifugation tube, 500 μL H2O was carefully layered on top, and the mixture was centrifuged at 10,950 RCF for 3 h. (7) The CM-containing upper layer was carefully isolated with a fine-tip pipette. (8) Test drug was then extracted from the CM layer with 70% ACN and quantified using LC-MS/MS.
With the presence of CMs in isolated Caco-2 cell extracts confirmed and reproducibility validated across replicates and different drugs, we were eager to investigate drug incorporation during CM biogenesis in vitro. Accordingly, we added test compound (Figure ) to differentiated Caco-2 cells along with the lipid mix to a final test drug concentration of 10 μM. While 10 μM was selected as a standard concentration for these studies, higher concentrations could allow detection of other compounds with low CM association in future experiments. In either case, CMs secreted by Caco-2 cells can be isolated postincubation, and drug concentrations within CMs can be assessed using highly sensitive LC-MS/MS methodology. Positive (high c Log D) and negative (low c Log D) control compounds were selected to validate this assay. […] Given these properties, we expected CAB to readily package into CMs in vitro. […]. […] This sets the stage for quantitative comparisons of TXL and its functionalized analogs, which are detailed below.
At 14-days postconfluence, Caco-2 cells were incubated in a lipid mixture to induce secretion of CMs. For the lipid solution, oleic acid (50 mg), lecithin (40 mg), and sodium taurocholate (48 mg) were weighted out into an Eppendorf tube, and the volume was brought up to 900 μL with PBS, followed by vigorous vortexing to ensure sample homogeneity. This 100× lipid mixture was then diluted into growth media to achieve the desired concentrations (2 mM oleic acid, 1.36 mM lecithin, 1 mM sodium taurocholate) by adding 500 μL of the lipid mixture to 49.5 mL of media. The lipid-supplemented media was thoroughly mixed and sterilized by filtration using a 250 mL sterile vacuum filter. For the drug-exposed CM experiments, each test compound was dissolved in 2 mM human serum albumin (HAS, Sigma, essentially fatty acid free) in DPBS, then added to 10 mL aliquots of lipid-containing media to achieve a final concentration of 10 μM. Subsequently, lipid-containing media was added to Caco-2 cells and incubated for 4 h at 37 °C. After incubation, cells were washed twice with PBS then incubated for 4, 8, or 20 h at 37 °C in fresh, colorless growth medium. Media was collected into 15 mL falcon tubes and centrifuged at 2000g to remove cell debris. Postcentrifugation, the supernatant was transferred to 50 mL Nalgene Oak Ridge High-Speed PPCO Centrifuge Tubes. Next, to adjust the density for ultracentrifugation, 1.19 g of NaCl in 2 mL of deionized (DI) H2O were added to reach a final volume of 5 mL, corresponding to a density of 1.20 g/mL. This mixture was dissolved by vortexing and balanced by weight. 500 μL of DI H2O was carefully overlaid onto the mixture. Ultracentrifugation was performed for 2 h and 30 min at 10,920 relative centrifugal force (RCF). Immediately after centrifugation, the top 500 μL layer, containing CMs, was carefully collected using a gel-loading pipet tip.
To an aliquot of CM extract was added an equal volume of ACN into 1.5 mL Eppendorf tubes. Tubes were shaken for 1 h at rt then centrifuged at 15,000 RCF to remove debris. The clear supernatant was transferred to a glass vial and concentrated under reduced pressure to yield a dry solid. Sample was then reconstituted in 70% ACN in H2O, filtered and then analyzed. […]

Structures are written as SMILES. Where two headings read alike, the source gives them in different places.

A word on the CC50: it is the concentration that lowers cell viability or growth by half.

Protocol for Cytotoxicity, MTT assay: To measure cytotoxicity, HeLa-derived TZM-bl cells , were treated with serial dilutions of each drug, and viability was assessed after 48 h. Two methods were used: an ATP luminescence assay, which measures cellular ATP levels as an indicator of metabolic activity (compounds 8a–d), and an MTT assay, which evaluates cell viability via mitochondrial enzymatic activity (compounds 15b, 21a, and 21b).
The TZM-bl cell line (BEI Resources, ARP-8129) was used to evaluate both cell viability and HIV pseudovirus infectivity reduction. Cytotoxicity in this cell line was measured via two methods. The first method, an ATP luminescence assay, was used for compounds 15a, 15b, 21a, and 21b as such: 6000 TZM-bl cells per well were seeded in a 96-well plate and incubated at 37 °C with 5% CO2 for 24 h. Compounds were prepared as serial dilutions (final concentrations of 1, 0.2, 0.04, 0.008, and 0.0016 μM) in complete DMEM with DEAE-Dextran at 40 μg/mL to mimic HIV infectivity conditions. Solutions were added to the cells and incubated for another 48 h. Viability was assessed using the Promega Cell Titer Glow (CTG) Assay (cat No. G9242) by adding a 50% PBS-CTG solution to each well and measuring luminescence, which correlates with ATP levels, on an Agilent BioTek Synergy HT reader. Cytotoxicity of compounds 8a–d was determined using a colorimetric assay based the conversion of MTT (3-(4,5-dimethylthiazol-2-yl)-2,5-diphenyltetrazolium bromide) to formazan as described previously. TZM-bl cells were plated into 96-well tissue culture plates 1 day prior to performing the MTT assay. A series of 10 3-fold dilutions of each compound was performed from a starting concentration of 10 mM and each dilution was tested for a reduction in cell viability according to the manufacturer’s instructions (CyQuant MTT Cell Viability Assay, ThermoFisher, V13154). Wells containing TZM-bl cells with media only were used as a control. Briefly, serial dilutions of each test compound were added to the plated TZM-bl cells. At 48 h, the media was removed and replaced with 100 mL of fresh culture medium. 10 mL of 12 mM MTT solution was added to each well and incubated at 37 °C for 4 h. 85 mL of supernatant was then removed from each well and replaced with 50 mL of DMSO. Following a 10 min incubation at 37 °C, the absorbance of each well was determined at 540 nm using a Biotek Synergy Neo2 multimode reader and Gen5 v3.02 software.

`CCCCCCCCCCCCCCCCOC[C@@H](COP(=O)(O)CO[C@H](C)Cn1cnc2c(N)ncnc21)OCc1ccccc1` [8a, Ammonium[(1R)-2-(6-aminopurin-9-yl)-1-methyl-ethoxy]methyl-[(2S)-2-benzyloxy-3-hexadecoxy-propoxy]phosphinate] showed a CC50 at 48 h in “Cytotoxicity, MTT assay” of over 10 µM. The half-life at 3 µM in data set [1] is over 2 h. The matching figures for `CCCCCCCCCCCCCCCCCCOC[C@@H](COP(=O)(O)CO[C@H](C)Cn1cnc2c(N)ncnc21)OCc1ccccc1` [8b, Ammonium[(1R)-2-(6-aminopurin-9-yl)-1-methyl-ethoxy]methyl-[(2S)-2-benzyloxy-3-octadecoxy-propoxy]phosphinate]: over 10 µM and over 2 h. Taken in the same sequence, the figures for `CCCCCCCCCCCCCCCCOC[C@H](COP(=O)(O)CO[C@H](C)Cn1cnc2c(N)ncnc21)OCc1ccccc1` [8c, Ammonium[(1R)-2-(6-aminopurin-9-yl)-1-methyl-ethoxy]methyl-[(2R)-2-benzyloxy-3-hexadecoxy-propoxy]phosphinate] were over 10 µM and over 2 h.

As to `CCCCCCCCCCCCCCCC(=O)OCC(COC(=O)CCCCCCCCCCCCCCC)OC(=O)CC(C)CC(=O)Oc1cc(C)cc(C)c1C(C)(C)CC(=O)Oc1ccc2c3c1O[C@H]1[C@@]4(OC)CC[C@@]5(C[C@@H]4[C@](C)(O)C(C)(C)C)[C@@H](C2)N(CC2CC2)CC[C@]315` (stereo partly shown) [BUP-TML-C5βMe-TG], in data set [2] (parent Buprenorphine, ref Quach 2022), the “Δ Oral Availability (% versus Parent)” value was 83%. Further, the “oral dose recovered in mesenteric lymph” value in data set [3] (within 6 h, ref Quach 2022) is listed as 44.7% oral dose recovered in mesenteric lymph within 6 h. `CO[C@H]1C(=O)[C@]2(C)[C@@H](OC)C[C@H]3OC[C@@]3(OC(C)=O)[C@H]2[C@H](OC(=O)c2ccccc2)[C@]2(O)C[C@H](OC(=O)[C@H](O)[C@@H](NC(=O)OC(C)(C)C)c3ccccc3)C(C)=C1C2(C)C` [CAB, Cabazitaxel, reference compound]: the “detection of compound in CM extract by LC-MS/MS” value with Caco-2 cell-derived CMs is reported as “presence”.

As for `CCCCCCCCCCCCCCCCCCCC(=O)OCC(COP(=O)([O-])OCC[N+](C)(C)C)OC(=O)C(CCC)CCC` (stereo not shown) [DP-VPA], the “Δ Oral Availability (% versus Parent)” value in data set [2] (parent Valproic Acid, ref Dahan 2008) is 9%. Besides, the “orally-dosed drug recovered in mesenteric lymph” value (“orally-dosed drug recovered” below) in data set [3] (ref Dahan 2008) is recorded as 60% orally-dosed drug recovered in mesenteric lymph.

Consider `CCCCCCCCCCCCCCCC(=O)OCC(COC(=O)CCCCCCCCCCCCCCC)OC(=O)CCCSSCCCC(=O)O[C@@H](C(=O)O[C@H]1C[C@@]2(O)[C@@H](OC(=O)c3ccccc3)[C@@H]3[C@]4(OC(C)=O)CO[C@@H]4C[C@H](O)[C@@]3(C)C(=O)[C@H](O)C(=C1C)C2(C)C)[C@@H](NC(=O)OC(C)(C)C)c1ccccc1` [DTX-S-S-TG], for which the “Δ Oral Availability (% versus Parent)” value in data set [2] (parent Docetaxel, ref Tian 2019) is listed as 44%. In addition, in data set [3] (ref Tian 2019), the “Evidence of Lymphatic Uptake” value was “Cycloheximide inhibition reduces lymphatic transport and prodrug bioavailability”. As to `CN(C)C(=N)N=C(N)N` [MET, metformin, reference compound], in the data set with Caco-2 cell-derived CMs, the “detection of compound in CM extract by LC-MS/MS” value is listed as “absence”.

Consider `CCCCCCCCCCC(=O)O[C@H]1CC[C@H]2[C@@H]3CCC4=CC(=O)CC[C@]4(C)[C@H]3CC[C@]12C` [Testosterone Undecanoate (TU), Testosterone Undecanoate], for which the “Δ Oral Availability (% versus Parent)” value in data set [2] (parent Testosterone, ref Shackleford 2003) is recorded as 7%. The “lymphatic transport as share of systemic availability” value in data set [3] (oral administration, ref not printed in text (Table 1: Shackleford 2003)) is 91.5–99.7%. As for `CCCCCCCCCCCCCCCC(=O)OCC(COC(=O)CCCCCCCCCCCCCCC)OC(=O)CC(C)CC(=O)OCOC1CCC2C3CCC4=CC(=O)CCC4(C)C3CCC12C` (stereo not shown) [Testosterone-ASI-C5-βMe-TG], the “Δ Oral Availability (% versus Parent)” value in data set [2] (parent Testosterone, ref Hu 2016) is 90%. Also, the “orally-dosed drug recovered” value in data set [3] (ref Hu 2016) was 28% orally-dosed drug recovered in mesenteric lymph (0% for parent). In the case of `C[C@]12CC[C@H]3[C@@H](CCC4=CC(=O)CC[C@@]43C)[C@@H]1CC[C@@H]2O` [Testosterone], the “orally-dosed drug recovered” value in data set [3] (in vivo, po) is on record as 28% orally-dosed drug recovered in mesenteric lymph (0% for parent).
